Measured values from patent US11905230B2, “Phenoxyacetic acid derivatives, preparation method thereof and use thereof as medicament” (CHINA PHARMACEUTICAL UNIVERSITY, priority 2017, dated 2024).

How the values were obtained:
[1] = target: hGPR40 receptor (Homo sapiens (Human), UniProt O14842); assay: agonistic activity on hGPR40-CHO stably transfected cells (Fluo-4 / FLIPR); assay type: cell-based; conditions: for activation at 0.1 µM / Agonistic activity at 100 nM (%): 100 nM, relative to linoleic acid well; for EC50: mean ± SD of three determinations
hGPR40 receptor, sequence (O14842 whole entry): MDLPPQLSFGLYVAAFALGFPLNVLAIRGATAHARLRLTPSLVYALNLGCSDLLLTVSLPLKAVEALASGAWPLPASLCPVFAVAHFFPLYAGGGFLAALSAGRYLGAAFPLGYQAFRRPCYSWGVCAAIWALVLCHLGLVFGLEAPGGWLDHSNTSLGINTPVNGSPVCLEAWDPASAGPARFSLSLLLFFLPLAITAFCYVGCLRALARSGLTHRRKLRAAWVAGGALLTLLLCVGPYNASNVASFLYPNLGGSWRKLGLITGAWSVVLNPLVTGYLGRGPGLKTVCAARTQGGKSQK
Description: Experimental example 1 The agonistic activity of the compounds of the present invention on hGPR40-CHO stably transfected cells
The present invention used the following method to determine the GPR40 agonistic activity of the compounds of the invention:
hGPR40-CHO stably transfected cells were seeded into a 96-well plate at a density of 3×10^4/well, and incubated overnight in a 37° C., 5% CO2 cell incubator; the medium was discarded, 100 μl of HBSS was added to each well, and 100 μl of Fluo-4 dye solution containing Probenecid was added and incubated at 37° C. for 90 min. After the incubation, the Fluo-4 dye solution was sucked out, 100 μl of HBSS buffer was added, and the dye was washed away; 100 μl of HBSS containing Probenecid was added to each well, and incubated at 37° C. for 10 min; different concentrations of drugs were added to each well of the 96-well plate and FLIPR (Molecular Devices) was used for readings according to the parameter setting table. The experimental results were analyzed.

[2] = Evaluation of hepatotoxicity: serum ALT, AST and TBIL after 4 weeks of dosing; assay type: in vivo; conditions: for AST, ALT and TBIL compared with STZ (blank) group (in words): 4 weeks of dosing; for ALT (IU/L) / AST (IU/L) / TBIL (IU/L): serum, once a day for consecutive 4 weeks, x ± SD, n = 6
Description: Experimental example 3 Evaluation of hepatotoxicity of the compounds of the present invention:
The test compounds were administered once a day for consecutive 4 weeks, blood was taken, and the contents of alanine aminotransferase (ALT), aspartate aminotransferase (AST), and total bilirubin (TBIL) were measured.

[3] = test system: normal mice; assay: Oral glucose tolerance test (OGTT) in normal mice; assay type: in vivo, Kunming mice; conditions: for effect on oral glucose tolerance in mice (in words): OGTT in normal mice, 20 mg/kg; for blood glucose level at 15 min / blood glucose level at 0 min / blood glucose level at 30 min / blood glucose level at 60 min / blood glucose level at 120 min: 20 mg/kg by gavage, in mmol/L (unit assumed); for blood glucose level at 15 min: 15 min after glucose load; for blood glucose level at 0 min: 30 min after dosing, before glucose load; for blood glucose level at 30 min: 30 min after glucose load; for blood glucose level at 60 min: 60 min after glucose load; for blood glucose level at 120 min: 120 min after glucose load
Description: Experimental example 2 In vivo hypoglycemic activity of the compounds of the present invention can be determined by using an assay system as described below:
The mice were fasted for 12 hours before experiment and water was taken freely, each group was administrated by gavage, blood was taken from the tail, and the blood glucose level was measured (recorded as −30 min).

SMILES: CCOc1cc(C)c(-c2cccc(CNc3ccc(OCC(=O)O)c(F)c3)c2)c(C)c1 [Compound I-1, 2-(4-((4′-ethoxy-2′,6′-dimethyl-[1,1′-biphenyl]-3-methylene)amino)-2-fluorophenoxy) acetic acid]
- activation at 0.1 µM [1]: 79%

SMILES: O=C(O)COc1ccc(NCc2cccc(-c3ccccc3Cl)c2)cc1F [Compound I-2, 2-(4-((2′-chloro-[1,1′-biphenyl]-3-methylene)amino)-2-fluorophenoxy)acetic acid]
- AST, ALT and TBIL compared with STZ (blank) group (in words) [2]: equivalent to the blank group
- ALT (IU/L) [2]: 47 ± 5.3 IU/L
- AST (IU/L) [2]: 118.43 ± 11.5 IU/L
- TBIL (IU/L) [2]: 2.61 ± 0.5 IU/L
- activation at 0.1 µM [1]: 84%
- EC50 [1]: 16.3 ± 4.6 nM
- effect on oral glucose tolerance in mice (in words) [3]: significantly improve oral glucose tolerance
- blood glucose level at 15 min ([3]; OGTT, n = 8): 6.24 ± 0.39
- blood glucose level at 0 min ([3]; OGTT, n = 8): 4.25 ± 0.38
- blood glucose level at 30 min ([3]; OGTT, n = 8): 6.73 ± 0.29
- blood glucose level at 60 min ([3]; OGTT, n = 8): 4.28 ± 0.37
- blood glucose level at 120 min ([3]; OGTT, n = 8): 4.17 ± 0.52

SMILES: O=C(O)COc1ccc(NCc2cccc(-c3ccccc3F)c2)cc1F [Compound I-4, 2-(4-((2′-fluoro-[1,1′-biphenyl]-3-methylene)amino)-2-fluorophenoxy)acetic acid]
- activation at 0.1 µM [1]: 65%

SMILES: Cc1ccc(-c2cccc(CNc3ccc(OCC(=O)O)c(F)c3)c2)c(Cl)c1 [Compound I-5, 2-(4-((2′-chloro-4′-methyl-[1,1′-biphenyl]-3-methylene)amino)-2-fluorophenoxy)acetic acid]
- activation at 0.1 µM [1]: 73%

SMILES: O=C(O)COc1ccc(NCc2cccc(-c3ccccc3C(F)(F)F)c2)cc1F [Compound I-8, 2-(4-((2′-trifluoromethyl-[1,1′-biphenyl]-3-methylene)amino)-2-fluorophenoxy)acetic acid]
- AST, ALT and TBIL compared with STZ (blank) group (in words) [2]: equivalent to the blank group
- ALT (IU/L) [2]: 46.63 ± 6.2 IU/L
- AST (IU/L) [2]: 112.85 ± 17.76 IU/L
- TBIL (IU/L) [2]: 2.52 ± 0.3 IU/L
- activation at 0.1 µM [1]: 86%
- EC50 [1]: 11.7 ± 4.8 nM
- effect on oral glucose tolerance in mice (in words) [3]: significantly improve oral glucose tolerance
- blood glucose level at 15 min ([3]; OGTT, n = 8): 6.73 ± 0.65
- blood glucose level at 0 min ([3]; OGTT, n = 8): 4.46 ± 0.47
- blood glucose level at 30 min ([3]; OGTT, n = 8): 6.82 ± 0.58
- blood glucose level at 60 min ([3]; OGTT, n = 8): 5.17 ± 0.39
- blood glucose level at 120 min ([3]; OGTT, n = 8): 4.26 ± 0.25

SMILES: CCCOc1cc(C)c(-c2cccc(CNc3ccc(OCC(=O)O)c(F)c3)c2)c(C)c1 [Compound I-9, 2-(4-((4′-propoxy-2′,6′-dimethyl-[1,1′-biphenyl]-3-methylene)amino)-2-fluorophenoxy) acetic acid]
- activation at 0.1 µM [1]: 67%

SMILES: COCCOc1cc(C)c(-c2cccc(CNc3ccc(OCC(=O)O)c(F)c3)c2)c(C)c1 [Compound I-10]
- activation at 0.1 µM [1]: 62%

SMILES: O=C(O)COc1ccc(NCc2cccc(-c3ccccc3)c2)cc1F [Compound I-11, 2-(4-(([1,1′-biphenyl]-3-methylene)amino)-2-fluorophenoxy)acetic acid]
- activation at 0.1 µM [1]: 46%

SMILES: Cc1cc(OCCCS(C)(=O)=O)cc(C)c1-c1cccc(CNc2ccc(OCC(=O)O)c(F)c2)c1 [Compound I-12]
- activation at 0.1 µM [1]: 68%

SMILES: CCOc1ccc(-c2cccc(CNc3ccc(OCC(=O)O)c(F)c3)c2)c(C)c1 [Compound I-13]
- AST, ALT and TBIL compared with STZ (blank) group (in words) [2]: equivalent to the blank group
- ALT (IU/L) [2]: 52.37 ± 5.3 IU/L
- AST (IU/L) [2]: 121.37 ± 13.2 IU/L
- TBIL (IU/L) [2]: 2.48 ± 0.5 IU/L
- activation at 0.1 µM [1]: 85%
- EC50 [1]: 14.6 ± 3.7 nM
- effect on oral glucose tolerance in mice (in words) [3]: significantly improve oral glucose tolerance
- blood glucose level at 15 min ([3]; OGTT, n = 8): 7.25 ± 0.58
- blood glucose level at 0 min ([3]; OGTT, n = 8): 4.61 ± 0.35
- blood glucose level at 30 min ([3]; OGTT, n = 8): 7.03 ± 0.89
- blood glucose level at 60 min ([3]; OGTT, n = 8): 5.25 ± 0.72
- blood glucose level at 120 min ([3]; OGTT, n = 8): 4.38 ± 0.37

SMILES: CCCOc1ccc(-c2cccc(CNc3ccc(OCC(=O)O)c(F)c3)c2)c(C)c1 [Compound I-15]
- activation at 0.1 µM [1]: 75%
- EC50 [1]: 28.4 ± 2.8 nM

SMILES: CC(C)c1ccccc1-c1cccc(CNc2ccc(OCC(=O)O)c(F)c2)c1 [Compound I-16]
- activation at 0.1 µM [1]: 63%

SMILES: CCOc1cc(C)c(-c2cccc(CNc3ccc(OCC(=O)O)cc3)c2)c(C)c1 [Compound I-17, 2-(4-((4′-ethoxy-2′,6′-dimethyl-[1,1′-biphenyl]-3-methylene)amino)phenoxy)acetic acid]
- Agonistic activity at 100 nM (%) [1]: 70%

SMILES: COc1ccc(-c2cccc(CNc3ccc(OCC(=O)O)c(F)c3)c2)c(C)c1 [Compound I-19]
- ALT (IU/L) [2]: 50.33 ± 4.6 IU/L
- AST (IU/L) [2]: 123.45 ± 7.8 IU/L
- TBIL (IU/L) [2]: 2.68 ± 0.3 IU/L
- activation at 0.1 µM [1]: 80%
- EC50 [1]: 18.4 ± 2.2 nM
- blood glucose level at 15 min ([3]; OGTT, n = 8): 9.08 ± 0.62
- blood glucose level at 0 min ([3]; OGTT, n = 8): 4.45 ± 0.56
- blood glucose level at 30 min ([3]; OGTT, n = 8): 8.21 ± 0.39
- blood glucose level at 60 min ([3]; OGTT, n = 8): 5.23 ± 0.21
- blood glucose level at 120 min ([3]; OGTT, n = 8): 4.41 ± 0.44

SMILES: COc1cc(C)c(-c2cccc(CNc3ccc(OCC(=O)O)c(F)c3)c2)c(C)c1 [Compound I-20, 2-(4-((4′-methoxy-2′,6′-dimethyl-[1,1′-biphenyl]-3-methylene)amino)-2-fluorophenoxy)acetic acid]
- activation at 0.1 µM [1]: 68%

SMILES: O=C(O)COc1ccc(NCc2cccc(-c3ccccc3C(F)(F)F)c2)cc1 [Compound I-28, 2-(4-((2′-trifluoromethyl-[1,1′-biphenyl]-3-methylene)amino)phenoxy)acetic acid]
- ALT (IU/L) [2]: 49.36 ± 7.8 IU/L
- AST (IU/L) [2]: 119.68 ± 7.3 IU/L
- TBIL (IU/L) [2]: 2.57 ± 0.5 IU/L
- Agonistic activity at 100 nM (%) [1]: 81%
- EC50 [1]: 17.9 ± 2.9 nM
- effect on oral glucose tolerance in mice (in words) [3]: significantly improve oral glucose tolerance
- blood glucose level at 15 min ([3]; OGTT, n = 8): 8.59 ± 0.38
- blood glucose level at 0 min ([3]; OGTT, n = 8): 4.56 ± 0.48
- blood glucose level at 30 min ([3]; OGTT, n = 8): 7.43 ± 0.56
- blood glucose level at 60 min ([3]; OGTT, n = 8): 5.30 ± 0.26
- blood glucose level at 120 min ([3]; OGTT, n = 8): 4.21 ± 0.45
- blood glucose level at −30 min ([3]; OGTT, fasted mice, before dosing, x ± SD, n = 8): 4.35 ± 0.36

SMILES: Cc1cc(OC(F)(F)F)cc(C)c1-c1cccc(CNc2ccc(OCC(=O)O)cc2)c1 [Compound I-29, 2-(4-((4′-trifluoromethoxy-2′,6′-dimethyl-[1,1′-biphenyl]-3-methylene)amino)phenoxy)acetic acid]
- Agonistic activity at 100 nM (%) [1]: 62%

SMILES: Cc1cc(OC(F)(F)F)ccc1-c1cccc(CNc2ccc(OCC(=O)O)cc2)c1 [Compound I-30, 2-(4-((4′-trifluoromethoxy-2′-methyl-[1,1′-biphenyl]-3-methylene)amino)phenoxy)acetic acid]
- Agonistic activity at 100 nM (%) [1]: 76%

SMILES: CCOc1ccc(-c2cccc(CNc3ccc(OCC(=O)O)cc3)c2)c(C)c1 [Compound I-31]
- activation at 0.1 µM [1]: 79%

SMILES: CCCCCCOc1cc(C)c(-c2cccc(CNc3ccc(OCC(=O)O)c(F)c3)c2)c(C)c1 [Compound I-42, 2(2-fluoro-4-(((4′-(hexyloxy)-2′,6′-dimethyl-[1,1′-biphenyl]-3-yl)methyl)amino)phenoxy)acetic acid]
- melting point: 132 to 135 °C

SMILES: Cc1cc(OCCCS(C)(=O)=O)cc(C)c1-c1cccc(COc2ccc3c(c2)OC[C@H]3CC(=O)O)c1 [TAK-875, reference compound]
- AST, ALT and TBIL compared with STZ (blank) group (in words) [2]: AST was higher than STZ group
- ALT (IU/L) [2]: 72.83 ± 8.4 IU/L
- AST (IU/L) [2]: 149.33 ± 15.6 IU/L
- TBIL (IU/L) [2]: 2.98 ± 0.4 IU/L
- Agonistic activity at 100 nM (%) [1]: 65%
- blood glucose level at 15 min ([3]; OGTT, n = 8): 9.68 ± 0.46
- blood glucose level at 0 min ([3]; OGTT, n = 8): 4.53 ± 0.25
- blood glucose level at 30 min ([3]; OGTT, n = 8): 8.61 ± 0.45
- blood glucose level at 60 min ([3]; OGTT, n = 8): 5.47 ± 0.56
- blood glucose level at 120 min ([3]; OGTT, n = 8): 4.46 ± 0.57
